Results published in patent publication US10258048B2, “Bacillus sp. strain with antifungal, antibacterial and growth promotion activity” (Marrone Bio Innovations, Inc, priority 2012, dated 2019).

Test system: Bacillus sp. isolate F727
Assay: Antibiotic susceptibility of Bacillus sp. isolate F727, antibiotic discs on Mueller-Hinton agar
Type: cell-based
Set-up: key: +++ indicates highly susceptible (no growth); ++ indicates moderately susceptible (reduced growth); − indicates no susceptibility
Conditions: pre-loaded antibiotic discs (load in ug); 25° C., 48 hours
Protocol: Antibiotic susceptibility of Bacillus sp. isolate F727 was tested using antibiotic discs on Muller-Hinton medium. A loopful of F727 was resuspended in 1 mL of sterile deionized water, and 100 μL of this suspension was streaked onto a Mueller-Hinton agar plate. After absorption of the streak into the agar, pre-loaded antibiotic discs were placed on the plate, and the plate was incubated at 25° C. for 48 hours.

Compound	Susceptibility of Bacillus sp. F727 to various antibiotics
CC1(C)S[C@@H]2[C@H](NC(=O)[C@H](N)c3ccccc3)C(=O)N2[C@H]1C(=O)O [Ampicillin]	+++
CO/N=C(\C(=O)N[C@@H]1C(=O)N2C(C(=O)O)=C(COC(N)=O)CS[C@H]12)c1ccco1 [Cefuroxime]	+++
O=C(N[C@H](CO)[C@H](O)c1ccc([N+](=O)[O-])cc1)C(Cl)Cl [Chloramphenicol]	+++
O=C(O)c1cn(C2CC2)c2cc(N3CCNCC3)c(F)cc2c1=O [Ciprofloxacin]	+++
CC[C@H]1OC(=O)[C@H](C)[C@@H](O[C@H]2C[C@@](C)(OC)[C@@H](O)[C@H](C)O2)[C@H](C)[C@@H](O[C@@H]2O[C@H](C)C[C@H](N(C)C)[C@H]2O)[C@](C)(O)C[C@@H](C)C(=O)[C@H](C)[C@@H](O)[C@]1(C)O [Erythromycin]	+++
C[C@@H](O)[C@H]1C(=O)N2C(C(=O)O)=C(SCCN=CN)C[C@H]12 [Imipenem]	+++
NC[C@H]1O[C@H](O[C@H]2[C@H](O)[C@@H](O[C@H]3O[C@H](CO)[C@@H](O)[C@H](N)[C@H]3O)[C@H](N)C[C@@H]2N)[C@H](O)[C@@H](O)[C@@H]1O [Kanamycin]	+++
CN(C)[C@@H]1C(O)=C(C(N)=O)C(=O)[C@@]2(O)C(O)=C3C(=O)c4c(O)cccc4[C@@](C)(O)[C@H]3[C@H](O)[C@@H]12 [Oxytetracycline]	+++
CCN1CCN(C(=O)N[C@@H](C(=O)N[C@@H]2C(=O)N3[C@@H]2SC(C)(C)[C@@H]3C(=O)O)c2ccccc2)C(=O)C1=O [Piperacillin]	+++
[H]/N=C(/N)N[C@H]1[C@H](O)[C@@H](O)[C@H](O[C@@H]2O[C@@H](C)[C@](O)(C=O)[C@H]2O[C@@H]2O[C@@H](CO)[C@H](O)[C@@H](O)[C@@H]2NC)[C@@H](N/C(N)=N\[H])[C@@H]1O [Streptomycin]	++
CN(C)[C@@H]1C(O)=C(C(N)=O)C(=O)[C@@]2(O)C(O)=C3C(=O)c4c(O)cccc4[C@@](C)(O)[C@H]3C[C@@H]12 [Tetracycline]	+++
Gentamicin	+++
Penicillin	+++
Sulphamethoxazole-Trimethoprim	+++
